The results in this text go back to US20260355199A1, “COMPOSITIONS AND METHODS FOR TREATING OR PREVENTING NONALCOHOLIC STEATOHEPATITIS (NASH), ANOREXIA, DEPRESSION, ENDOMETRIOSIS, AND OTHER DISEASES OR DISORDERS” (priority 2022, published 2026).

The subject of test [1] is TET3. The test can be described thus: TET3 protein in RAW 264.7 cells. It counts as cell-based, mouse. To be noted: RAW 264.7, 10 μM, 24 h. Here is the method:
For siRNA transfection in a 24-well plate scale of Raw 264.7 cells, 10 pmol of NT siRNA (AM4636, Ambion) or Tet3 siRNA (4390815/s101483, Ambion) was mixed with 100 μL of OPTI-MEM (Gibco, 31985-070) by gentle pipetting. In parallel, 3 μL of Lipofectamine RNAiMAX (Invitrogen, 13778-150) was mixed with 100 μL of OPTI-MEM by gentle pipetting. Following 5 min of incubation at RT, the two were combined and the resulting 200 μL of transfection solution was added to each well of cells. After 24 h of incubation at […] in a 5% humidified CO2 tissue culture incubator, 300 μL of growth media was added and incubation was continued until cell harvesting.
Bobcat339 Treatment of Cultured Cells Bobcat339 powder (Sigma-Aldrich, SML2611) was freshly dissolved in DMSO at a concentration of 5 mM and filtered through a 0.22 micron. Cells grown at a density of 80-90% were incubated in growth media with vehicle (DMSO) or Bobcat339 at a final concentration of 10 μM for 24 h, followed by RNA and protein extraction.
For TET3 expression restoration experiments, cells seeded in 24-well plates were infected with Ad-GFP or Ad-TET3 at 4000 gc/cell. Following 16 h of infection, vehicle or Bobcat339 were added at a final concentration of 10 μM. Protein and RNA were isolated 48 hours later and analyzed. […]

Test [2] concerns TET3 and TET2 mRNA. In words: TET3 and TET2 mRNA in human MDMs. Conditions: 24 h. It is filed as cell-based. Details: TET3 and TET2 mRNA levels: dose or concentration left out as unconfirmed. Here is the method: For siRNA transfection in a 24-well plate scale of MDMs, NT siRNA or TET3 siRNA (4392420/s47239, Ambion) was mixed with 25 μL of OPTI-MEM by gentle pipetting. In parallel, 1.5 μL of Lipofectamine RNAiMAX was mixed with 25 μL of OPTI-MEM by gentle pipetting. Following 5 min of incubation at RT, the resulting 50 μl of transfection solution was added to each well of cells containing 450 μL of growth media.
Bobcat339 Treatment of Cultured Cells Bobcat339 powder (Sigma-Aldrich, SML2611) was freshly dissolved in DMSO at a concentration of 5 mM and filtered through a 0.22 micron. […]
For cultured MDMs, cells were primed with CM-Endo or TGF-β1 (PeproTech, 100-21) for 36-48 h (to increase TET3 expression) before Bobcat339 treatment.
Total RNAs were extracted from cells using PureLink RNA Mini Kit. 0.5-1 μg total RNA was reverse transcribed to cDNA in a reaction volume of 20 μL using PrimeScript RT Reagent Kit. Real-time quantitative PCR was performed in a 15 μL reaction volume containing 0.5-1 μL of cDNA using SsoAdvanced Universal SYBR Green Supermix in a Bio-Rad iCycler. Gene expression levels were normalized against RPLP0.

For test [3], the system named is TET2. In words: TET2 protein stability (cycloheximide) in MDMs. To be noted: 10 μM, with cycloheximide. It is filed as cell-based, human. Here is the method:
For TET protein stability assay of MDMs, cells in 24-well plates were incubated with vehicle or Bobcat339 at a final concentration of 10 μM for 3 h, followed by addition of cycloheximide (CHX, Cell Signaling, 2112) at a final concentration of 50 μg/mL. Proteins were harvested at 0, 2, 4, and 6 hours after addition of CHX.

“Also recorded” adds a separate entry of the source.

Regarding `Nc1nc(=O)n(-c2cccc(-c3ccccc3)c2)cc1Cl` [Bobcat339, 4-Amino-1-[1,1′-biphenyl]-3-yl-5-chloro-2(1H)-pyrimidinone], the TET3 protein level entry in test [1] is recorded as “decreased the levels of TET3 protein; also recorded: decreased the level of TET3; also recorded: a decrease in TET3 at the protein level”. The “TET3 and TET2 mRNA” value in test [2] (10 μM) is “did not alter the mRNA levels of TET3 and TET2; also recorded: no significant differences in their expression”. Further, in test [2], the “TET3 and TET2 mRNA levels” value is “did not alter the mRNA levels of TET3 and TET2”. In addition, the TET2 protein stability result in test [3] is “destabilized both proteins”.
